“And” between values parts separate entries of the source, which are not always exact repeats. Equal entries are not always repeated.
Columns and labels:
Format in all cases: cell-based, human
pre-OPCs [1] = assay: HD-DoE 12-factor model for stage 2 (version 1), 3 days on stage 1 pre-OPCs; conditions: optimized for maximum expression of OLIG2 at 1841.6; negative impact
From the text: To engineer the recipe of stage 2 of differentiation, cells were first cultured in the stage 1 media described in Example 1 and then treated with combinations of 8 or 12 factors for 3 days and the gene expression of cells in each condition was modeled. At this point, due to short duration of culture (only six days in vitro), we decided to focus on maximal expression of OLIG2 and maintenance of high expression of NKX2-2, while initiating expression of SOX10, OLIG1 and PDGFRa, to guide the cells towards oligodendrocyte fate (Emery and Lu (2015). Cold Spring Harb Perspect Biol. 7:a020461; Perlman et al. (2020). Glia 68:1291-1303; Goldman and. Kuypers (2015) Development 142:3983-95).
In one 12-factor model, the individual and combinatorial impact of SUN 11602 an agonist for FGF signaling pathway, FGF2, Activin A an activator of one of the receptors of TGF-b superfamily, A 8301, an inhibitor of TGF-b pathway, CHIR99021 a WNT activator, AGN193109 a RA antagonist, MK2206 an AKT inhibitor, Purmorphamine an agonist of SHH signaling pathway, AZD3147 an antagonist of mTOR pathway, MHY1485 an agonist of mTOR pathway, SC79 an agonist of AKT pathway and G06983 an inhibitor of PKC pathway, were tested.
Dynamic profile analysis was used to assess the expression levels of other genes of interests, such as NKX2-2, OLIG1 and SOX10, while the model is maximized for OLIG2. Activin A and SUN 11602 were brought down to zero due to their very low factor contribution. We observed when the model is optimized, the expression level of NKX2-2 is at 3000, PDGFRa at 1000, OLIG1 at 80 and SOX10 at 15 (FIG. 12).

pre-OPCs [2] = assay: HD-DoE second 12-factor model for stage 2 (Purmorphamine with TTNPB, Biotin, Insulin etc.); conditions: optimized for OLIG2; input for minimal expression (negative)
Experimental: To gain more information about the effect of Purmorphamine on differentiation of pre-OPCs to a more committed cell population, we tested this factor in two other models. In a 12-factor model, we included Purmorphamine, FGF2, AGN193109 and CHIR99021 along with 8 new inputs including TTNPB, Biotin, Insulin, propionate, DBZ, Yhhu3792, LDN193189 and Y-27632. […] In another 12-factor model, Purmorphamine was tested along with A 8301, CHIR99021, Dexamethasone, T3+T4, PD0325901, ZM336372, DBZ, BMP7, PD173074, SANT-1 and PDGF-AA.

pre-OPCs [3] = assay: HD-DoE 8-factor model for stage 2 (version 2) on pre-OPCs; conditions: negative impact
Experimental: To engineer the recipe of stage 2 of differentiation, cells were first cultured in the stage 1 media described in Example 1, then, 48 or 96 different combinations of effectors generated using Design-of-Experiments compression through D-optimality were robotically prepared. The effector combinations were prepared in a basal media and were subsequently added to the cells, which were then allowed to differentiate. Three days later RNA extraction was performed, and gene expression was obtained using quantitative PCR analysis. The data was normalized and modeled using partial least squares regression analysis to the effector design, resulting in the generation of gene-specific models, which after model tuning for maximal predictive power, provided explanation of the effectors ability to control the expression of individual genes, combinatorically, and individually. Solutions within the tested space could then be explored to address desirability.
At this point, due to short duration of culture (only six days in vitro) we decided to focus on maximal expression of OLIG2 and maintenance of high expression of NKX2-2, while initiating expression of SOX10, OLIG1 and PDGFRa, to guide the cells towards oligodendrocyte fate (Emery and Lu (2015). Cold Spring Harb Perspect Biol. 7:a020461; Perlman et al. (2020). Glia 68:1291-1303; Goldman and Kuypers (2015) Development 142:3983-95). In one 8-factor model, the individual and combinatorial impact of CHIR99021 (a WNT pathway agonist), AGN193109 (an RA pathway antagonist), FGF-2 (an FGFR agonist), Purmorphamine (an SHH pathway agonist), AICAR (an AMPK agonist), GW3965 (an LXR pathway agonist), GW590735 (a PPAR-a agonist) and AZD3147 (a mTOR antagonist) on further differentiation of cells were tested.

[4] = test system: cells cultured in stage 1 and stage 2 differentiation media; assay: Two further HD-DoE models optimized for SOX10 (IGF-1, FGF-2, AGN193109)
From the text: According to literature, proteins such as FGF-2, IGF-1, PDGF-AA and NT-3 play an important role in oligodendrocyte differentiation (Goldman and Kuypers (2015) Development 142:3983-95). In the first model, FGF-2 had positive regulatory impact only on the expression level of SOX10 and IGF-1 on PDGFRa. Therefore, to further understand the impact of IGF-1 and FGF-2 on differentiation of cells and confirm their positive role, we included these factors in two other models and optimized the models for maximum expression of SOX10. This gene is one of the main transcription factors of oligodendrocytes, along with OLIG2 and NKX2-2 that has shown the potential to commit the stem cells to oligodendrocytes in reprogramming efforts (Wang et al, (2014) Proc Natl Arad Sri USA 111:E2885-94; García-León et al. (2018) Stem Cell Reports 10:655-672).

OPCs [5] = assay: HD-DoE 8-factor model for stage 4 on OPCs; conditions: optimized for maximal expression of CNP at 1339
Experimental: (§1) To engineer the recipe of stage 4 of differentiation, 48 or 96 different combinations of effectors generated using Design-of-Experiments compression through D-optimality were robotically prepared. The effector combinations were prepared in a basal media and were subsequently added to the cells, which were treated with the stage 1, stage 2 and stage 3 differentiation media as described in the earlier examples to generate OPCs. […] Solutions within the tested space could then be explored to address desirability.

OPCs [6] = assay: HD-DoE 12-factor model for stage 4 on OPCs, 6 days in culture
Experimental: as §1, with “desirability. […] Benarroch (2009) Neurology 72:1779-1785; Shi et al. (2019) Exp Ther Med, 18:1258-1266).” for “desirability.”

[7] = test system: cells cultured in stage 1 and stage 2 differentiation media; assay: HD-DoE 8-factor model for stage 3 (version 2)
Experimental: To further differentiate the cells to an oligodendrocyte progenitor identity, additional HD-DoE experiments were performed on the cells that were cultured in stage 1 and stage 2 differentiation media. After 3 days, gene expression of cells in different combinatorial conditions were investigated. At this time, we focused on maximal expression of signature oligodendrocyte progenitor genes such as SOX10, OLIG1 and PDGFRa (Goldman and Kuypers (2015) Development 142:3983-95: Marques et al. (2016) Science 352:1326-1329). In one 8-factor model, individual and combinatorial effects of TTNPB (an RA agonist), CHIR99021, FGF-2, IGF-1, AGN193109, Purmorphamine, MHY1485 (a mTOR pathway agonist) and SC79 (an AKT pathway agonist) were tested to guide the cells toward a SOX10/PDGFRa positive population. […] CHIR99021 was also positive, with a factor contribution of 8.1 (FIG. 33).
Other positive factors were IGF-1, with a factor contribution of 11.2, CHIR99021, with a factor contribution of 8.5 and TTNPB, with a factor contribution below 1 (FIG. 34).
To confirm the impact of TTNPB, FGF-2 and IGF-1 on a bigger scale, we investigated the expression profile of a larger group of genes defining late oligodendrocyte progenitor population, such as ID2, CSPG4, FYN, SOX8, PLP1 and BCAN (Perlman et al. (2020). Glia 68:1291-1303; Goldman and Kuypers (2015) Development 142:3983-95; van Tilborg et al. (2018) Glia 66:221-238) and neuronal genes such as NEUROD1, NEUROG1 and NEUROG2 in presence of IGF-1, FGF-2 or TTNPB.

[8] = optimized for CNP at 1790, negative impact
[9] = optimized for CNP at 1790, positive

`Cc1ccc(C2=CCC(C)(C)c3ccc(C#Cc4ccc(C(=O)O)cc4)cc32)cc1` [AGN193109] showed a factor contribution (pre-OPCs [1]) of 23.2, a factor contribution (pre-OPCs [2]) of 18.3 and a factor contribution (pre-OPCs [3]; optimized for maximum expression of OLIG1 at 454.7) of 25.3. For the same compound, the factor contribution (pre-OPCs [3]; optimized for maximum expression of OLIG2 at 3325) was 25.8 and the factor contribution ([4]; increasing level of SOX10, positive effect) was 16.
`O=C(O)CCCC[C@@H]1SC[C@@H]2NC(=O)N[C@@H]21` [Biotin] was tested, and the factor contribution (OPCs [5]; negative impact) was 12 and the factor contribution (OPCs [6]; [8]) was 16 and 16.5.
With `N[C@@H](Cc1cc(I)c(Oc2ccc(O)c(I)c2)c(I)c1)C(=O)O` [T3] the factor contribution (OPCs [5]; positive) was 18, the “effect on other OL genes and neuronal gene NeuroG1” value (OPCs [6]; factor effect plots) was “can upregulate other OL genes such as PLP1, PTGDS, KLK6 and MBP while downregulating neuronal gene NeuroG1” and the factor contribution (OPCs [6]; [8]) was 1.2.
For “IGF-1: IGFR activator (insulin-like growth factor 1)”, the “effect on late OPC genes and neuronal genes” value ([7]; factor plots vs concentration) was “expression levels of OPC genes increased as the concentration of IGF-1 increased, while neuronal genes decreased”, the factor contribution ([7]; optimized for maximum expression of PDGFRa at 853.4, positive) was 11.2 and the “impact on the expression level of SOX10” value ([4]; two other models optimized for SOX10) was “positive impact”. The factor contribution (OPCs [5]; positive) was “below 1” and the factor contribution (OPCs [6]; [9]) was 5.
In the case of Insulin: insulin receptor agonist, the factor contribution (OPCs [5]; positive) is reported as 10, the factor contribution (OPCs [6]; [9]) is reported as 3 and the factor contribution (OPCs [6]; optimized for PLP1 at 3600, positive) is reported as 13 and 13.2.
